Experiments:
[1] = system: glucocorticoid receptor; experiment: Glucocorticoid receptor cell assays, antagonist activity; assay type: cell-based; settings: assay not given
Method: B. Glucocorticoid Receptor Cell Assays
Evaluation of agonist or antagonist activity of compounds binding to the glucocorticoid receptor may be determined by any of the assays.
3. Modulation of Tyrosine Aminotransferase (TAT) Induction in Rat Hepatoma Cells
Testing of compounds for agonist or antagonist activity in induction of tyrosine aminotransferase (TAT) in rat hepatoma cells.
H4-II-E-C3 cells were incubated overnight in 96 well plates (20,000 cells/100 μL/well) in MEM medium containing 10% heat inactivated FBS and 1% nonessential amino acids. On the next day, cells were stimulated with the indicated concentrations of dexamethasone or test compound (dissolved in DMSO, final DMSO concentration 0.2%) for 18 hours. Control cells were treated with 0.2% DMSO. After 18 hours, the cells were lysed in a buffer containing 0.1% Triton X-100 and the TAT activity was measured in a photometric assay using tyrosine and alpha-ketoglutarate as substrates. […]
Cells were cultured overnight in DMEM medium without phenol red, supplemented with 3% CCS (charcoal treated calf serum) and then transferred to 96 well plates (15,000 cells/100 μL/well). […] After 18 hours, the cells were lysed with cell lysis reagent (Promega, Cat. No. E1531), luciferase assay reagent (Promega, Cat. No. E1501) was added and the glow luminescence was measured using a luminometer (BMG, Offenburg). […]

[2] = system: glucocorticoid receptor; experiment: Glucocorticoid receptor function, one or more of the above assays (binding and cell assays); assay type: cell-based; settings: in one or more of the above assays; assay not given
Method: Compounds of the invention were evaluated for binding to the steroid receptor by a fluorescence polarization competitive binding assay. Detailed descriptions for preparation of recombinant glucocorticoid receptor (GR) complex used in the assay is described in U.S. Patent Application Publication No. 2003/0,017,503, filed May 20, 2002, and the corresponding U.S. provisional application No. 60/291,877, filed May 18, 2001, each of which is incorporated herein by reference in its entirety. Preparation of the tetramethyl rhodamine (TAMRA)-labeled dexamethasone probe was accomplished using a standard literature procedure (M. Pons et al., J. Steroid Biochem., 1985, 22, pp. 267-273).
This assay uses fluorescence polarization (FP) to quantitate the ability of test compounds to compete with tetramethyl rhodamine (TAMRA)-labeled dexamethasone for binding to a human glucocorticoid receptor (GR) complex prepared from an insect expression system. […]
The binding reactions were incubated for 1 hour at room temperature and then read for fluorescence polarization in the LJL Analyst set to 550 nm excitation and 580 nm emission, with the Rhodamine 561 dichroic mirror installed. IC50 values were determined by iterative non-linear curve fitting of the FP signal data to a 4-parameter logistic equation. […]

Structure (SMILES): C=CCOC(C)C1=CC(C)(C)Nc2ccc(-c3ccccc3OC)cc21 (stereo not drawn) [4-(1-Allyloxyethyl)-6-(2-methoxyphenyl)-2,2-dimethyl-1,2-dihydroquinoline]
- activity as antagonists in cellular assays [1]: potent activity as antagonists

Structure (SMILES): C=CCOC(C)C1=CC(C)(C)Nc2ccc(-c3cc(F)ccc3OC)cc21 (stereo not drawn) [4-(1-Allyloxyethyl)-6-(5-fluoro-2-methoxyphenyl)-2,2-dimethyl-1,2-dihydroquinoline]
- activity as an agonist of the glucocorticoid receptor function [2]: activity as an agonist

Structure (SMILES): C=CCSCC1=CC(C)(C)Nc2ccc(-c3ccccc3OC)cc21 [4-Allylsulfanylmethyl-6-(2-methoxyphenyl)-2,2-dimethyl-1,2-dihydroquinoline]
- activity as antagonists in cellular assays [1]: potent activity as antagonists

Source: US6858627B2, “Glucocorticoid mimetics, methods of making them, pharmaceutical compositions, and uses thereof” (Boehringer Ingelheim Pharmaceuticals, Inc., priority 2002, dated 2005)
